Key:
[1] = system: NQO1 mRNA in BEAS-2B cells; experiment: Beas2B NQO1 mRNA cell based assay; design: species or system human; settings: Homo sapiens, BEAS-2B, 24 h, 24 h compound treatment, increase in NQO1 mRNA vs vehicle (0.1% DMSO), read-out: EC50
Method in brief: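 BEAS-2B human bronchial epithelial cells exposed to compound for 24 h at 37 °C, 5% CO2. NQO1 mRNA measured by one-step TaqMan RT-qPCR on unpurified lysates, normalized to β-actin; relative expression by ΔΔCT method.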

[2] = target: human KEAP1 (N-term, residues 321-609) (Homo sapiens, UniProt Q14145); experiment: biochemical;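 note: fluorescence polarization competition assay of Kelch domain binding to NRF2, 12-point 1:3 dilution series from 10 µM, read after 1 h at room temperature, floor 10 nM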
human KEAP1 (N-term, residues 321-609), sequence (Q14145 321-609): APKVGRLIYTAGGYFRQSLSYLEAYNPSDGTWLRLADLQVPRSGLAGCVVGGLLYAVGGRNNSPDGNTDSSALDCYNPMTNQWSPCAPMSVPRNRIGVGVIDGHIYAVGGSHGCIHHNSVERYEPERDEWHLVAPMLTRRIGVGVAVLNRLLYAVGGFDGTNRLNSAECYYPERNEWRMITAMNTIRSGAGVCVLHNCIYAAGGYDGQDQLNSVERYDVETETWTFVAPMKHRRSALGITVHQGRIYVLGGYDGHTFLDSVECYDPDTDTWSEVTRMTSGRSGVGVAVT
Procedure: Biological Assays KEAP1 Kelch Fluorescence Polarization (FP) Assay Method
Inhibition of the Kelch domain-NRF2 interaction was determined using a fluorescence polarization-based competition assay in a black 384-well microplate. Compounds were tested at a starting concentration of 10 μM serially diluted 1:3 to generate a 12-point dose response curve on the Biomek FX robot.
After 1 h at room temperature, fluorescence polarization (excitation 470 nm/emission 530 nm) was measured using an Envision plate reader. IC50 values were determined by fitting the data to a four parameter logistic fit using XLfit or XE Runner within ActivityBase.

Row | SMILES | EC50 [1] [nM] | IC50 [2] [nM]
1 | O=C(O)[C@H]1CCCC[C@H]1C(=O)N1CCc2c(Cl)ccc(OCc3nnc4ccccn34)c2[C@H]1CN1CCCC1=O [Example 94, (1S,2R)-2-((S)-8-([1,2,4]Triazolo[4,3-a]pyridin-3-ylmethoxy)-5-chloro-1-((2-oxopyrrolidin-1-yl)methyl)-1,2,3,4-tetrahydroisoquinoline-2-carbonyl) cyclohexane-1-carboxylic acid] | 7.8 | 7.7
2 | Cc1noc2nc(COc3ccc(Cl)c4c3[C@@H](CN3CCCC3=O)N(C(=O)[C@@H]3CCCC[C@@H]3C(=O)O)CC4)ccc12 [Example 95, (1S,2R)-2-((S)-5-Chloro-8-((3-methylisoxazolo[5,4-b]pyridin-6-yl)methoxy)-1-((2-oxopyrrolidin-1-yl)methyl)-1,2,3,4-tetrahydroisoquinoline-2-carbonyl) cyclohexane-1-carboxylic acid] | 3.7 | 8
3 | Cn1nnc(COc2ccc(Cl)c3c2[C@@H](CN2CCCC2=O)N(C(=O)C2C4CCC(C4)C2C(=O)O)CC3)c1C(F)F (stereo partly drawn) [Example 96, 3-((S)-5-Chloro-8-((5-(difluoromethyl)-1-methyl-1H-1,2,3-triazol-4-yl)methoxy)-1-((2-oxopyrrolidin-1-yl)methyl)-1,2,3,4-tetrahydroisoquinoline-2-carbonyl)bicyclo[2.2.1]heptane-2-carboxylic acid] | 210 | 18
4 | Cn1nnc(COc2ccc(Cl)c3c2[C@@H](CN2CCCC2=O)N(C(=O)C2CCOC2C(=O)O)CC3)c1C(F)F (stereo partly drawn) [Example 97, 3-((S)-5-chloro-8-((5-(difluoromethyl)-1-methyl-1H-1,2,3-triazol-4-yl)methoxy)-1-((2-oxopyrrolidin-1-yl)methyl)-1,2,3,4-tetrahydroisoquinoline-2-carbonyl) tetrahydrofuran-2-carboxylic acid] | 750 | 17
5 | Cn1nc(COc2ccc(Cl)c3c2[C@@H](CN2CCCC2=O)N(C(=O)[C@@H]2CCCC[C@@H]2C(=O)O)CC3)c2ccccc21 [Example 98, (1S,2R)-2-((S)-5-Chloro-8-((1-methyl-1H-indazol-3-yl)methoxy)-1-((2-oxopyrrolidin-1-yl)methyl)-1,2,3,4-tetrahydroisoquinoline-2-carbonyl) cyclohexane-1-carboxylic acid] | 330 | 10
6 | Cn1cnc2ccc(COc3ccc(Cl)c4c3[C@@H](CN3CCCC3=O)N(C(=O)[C@@H]3CCCC[C@@H]3C(=O)O)CC4)nc21 [Example 99, (1S,2R)-2-((S)-5-chloro-8-((3-methyl-3H-imidazo [4,5-b]pyridin-5-yl)methoxy)-1-((2-oxopyrrolidin-1-yl)methyl)-1,2,3,4-tetrahydroisoquinoline-2-carbonyl) cyclohexane-1-carboxylic acid] | 520 | 9.7
7 | C[C@]1(C(=O)O)CCCC[C@H]1C(=O)N1CCc2c(Cl)ccc(OCc3noc4ccccc34)c2[C@H]1CN1CCCC1=O [Example 100, (1S,2R)-2-((S)-8-(benzo[d]isoxazol-3-ylmethoxy)-5-chloro-1-((2-oxopyrrolidin-1-yl)methyl)-1,2,3,4-tetrahydroisoquinoline-2-carbonyl)-1-methylcyclohexane-1-carboxylic acid] | 3.4 | 5.1
8 | Cn1nnc(COc2ccc(Cl)c3c2[C@@H](CN2CCCC2=O)N(C(=O)C2CC(F)(F)CC2C(=O)O)CC3)c1C(F)F (stereo partly drawn) [Example 101, 2-((S)-5-chloro-8-((5-(difluoromethyl)-1-methyl-1H-1,2,3-triazol-4-yl)methoxy)-1-((2-oxopyrrolidin-1-yl)methyl)-1,2,3,4-tetrahydroisoquinoline-2-carbonyl)-4,4-difluorocyclopentane-1-carboxylic acid] | 710 | 1900
9 | Cn1nnc(COc2ccc(Cl)c3c2[C@@H](CN2CCCC2=O)N(C(=O)[C@@H]2CCC[C@]2(C)C(=O)O)CC3)c1C(F)F [Example 102, (1S,2R)-2-((S)-5-chloro-8-((5-(difluoromethyl)-1-methyl-1H-1,2,3-triazol-4-yl)methoxy)-1-((2-oxopyrrolidin-1-yl)methyl)-1,2,3,4-tetrahydroisoquinoline-2-carbonyl)-1-methylcyclopentane-1-carboxylic acid] | 1 | 4.8
10 | Cc1nnc(COc2ccc(Cl)c3c2[C@@H](CN2CCCC2=O)N(C(=O)[C@@H]2CCCC[C@@H]2C(=O)O)CC3)n1C [Example 103, (1S,2R)-2-((S)-5-chloro-8-((4,5-dimethyl-4H-1,2,4-triazol-3-yl)methoxy)-1-((2-oxopyrrolidin-1-yl)methyl)-1,2,3,4-tetrahydroisoquinoline-2-carbonyl) cyclohexane-1-carboxylic acid] | 67 | 6.7
11 | Cn1cc(COc2ccc(Cl)c3c2[C@@H](CN2CCCC2=O)N(C(=O)[C@@H]2CCCC[C@@H]2C(=O)O)CC3)nn1 [Example 104, (1S,2R)-2-((S)-5-Chloro-8-((1-methyl-1H-1,2,3-triazol-4-yl)methoxy)-1-((2-oxopyrrolidin-1-yl)methyl)-1,2,3,4-tetrahydroisoquinoline-2-carbonyl)cyclohexane-1-carboxylic acid] | 27 | 5.5
12 | Cn1nnc(COc2ccc(Cl)c3c2[C@@H](CN2CCCC2=O)N(C(=O)[C@@H]2CCCC[C@]2(F)C(=O)O)CC3)c1C(F)F [Example 105, (1R,2S)-2-((S)-5-Chloro-8-((5-(difluoromethyl)-1-methyl-1H-1,2,3-triazol-4-yl)methoxy)-1-((2-oxopyrrolidin-1-yl)methyl)-1,2,3,4-tetrahydroisoquinoline-2-carbonyl)-1-fluorocyclohexane-1-carboxylic acid] | 24 | 7.1
13 | Cn1cc(COc2ccc(Cl)c3c2[C@@H](CN2CCCC2=O)N(C(=O)[C@@H]2CCCC[C@]2(C)C(=O)O)CC3)nn1 [Example 106, (1S,2R)-2-((S)-5-chloro-8-((1-methyl-1H-1,2,3-triazol-4-yl)methoxy)-1-((2-oxopyrrolidin-1-yl)methyl)-1,2,3,4-tetrahydroisoquinoline-2-carbonyl)-1-methylcyclohexane-1-carboxylic acid] | 2.9 | 5.1
14 | Cc1c(COc2ccc(Cl)c3c2[C@@H](CN2CCCC2=O)N(C(=O)[C@@H]2CCCC[C@]2(C)C(=O)O)CC3)nnn1C [Example 107, (1S,2R)-2-((S)-5-Chloro-8-((1,5-dimethyl-1H-1,2,3-triazol-4-yl)methoxy)-1-((2-oxopyrrolidin-1-yl)methyl)-1,2,3,4-tetrahydroisoquinoline-2-carbonyl)-1-methylcyclohexane-1-carboxylic acid] | 0.35 | 6.6
15 | Cn1nnc(COc2ccc(Cl)c3c2[C@@H](CN2CCCC2=O)N(C(=O)[C@@H]2CCCC[C@]2(C)C(=O)O)CC3)c1C(F)(F)F [Example 108, (1S,2R)-2-((S)-5-Chloro-8-((1-methyl-5-(trifluoromethyl)-1H-1,2,3-triazol-4-yl)methoxy)-1-((2-oxopyrrolidin-1-yl)methyl)-1,2,3,4-tetrahydroisoquinoline-2-carbonyl)-1-methylcyclohexane-1-carboxylic acid] | 1.5 | 5.9

Source: patent US12098148B2, “Therapeutic compounds” (C4X Discovery Limited, priority 2018, dated 2024)
